Reference: article PMC6801562, “PIEZO1 and TRPV4, which Are Distinct Mechano-Sensors in the Osteoblastic MC3T3-E1 Cells, Modify Cell-Proliferation” (International Journal of Molecular Sciences, 2019)

Key:
TRPV4 (MC3T3-E1 cells) = target: T1, TRPV4 (MC3T3-E1 cells) (Mus musculus, UniProt Q9EPK8); test: Fura-2 Ca2+ imaging, MC3T3-E1 cells, Hill fit; type: cell-based; settings: agonist; native cells; pH 7.4, 2.2 mM Ca2+, n = 7
T1 construct: native full-length channel in mouse osteoblastic MC3T3-E1 cells (Riken Cell Bank); identity supported by siTRPV4 knockdown

[1] = target: T2, mouse PIEZO1 (mPIEZO1; HEK-mPiezo1) (Mus musculus, UniProt E2JF22); test: Fura-2 Ca2+ imaging, HEK cells, Hill fit; type: cell-based
T2 construct: mouse Piezo1 (Addgene) in pcDNA3.1 / pIRES2-AcGFP1, transiently transfected in HEK 293 cells; low endogenous human PIEZO1 in host
T2 sequence (E2JF22 whole entry): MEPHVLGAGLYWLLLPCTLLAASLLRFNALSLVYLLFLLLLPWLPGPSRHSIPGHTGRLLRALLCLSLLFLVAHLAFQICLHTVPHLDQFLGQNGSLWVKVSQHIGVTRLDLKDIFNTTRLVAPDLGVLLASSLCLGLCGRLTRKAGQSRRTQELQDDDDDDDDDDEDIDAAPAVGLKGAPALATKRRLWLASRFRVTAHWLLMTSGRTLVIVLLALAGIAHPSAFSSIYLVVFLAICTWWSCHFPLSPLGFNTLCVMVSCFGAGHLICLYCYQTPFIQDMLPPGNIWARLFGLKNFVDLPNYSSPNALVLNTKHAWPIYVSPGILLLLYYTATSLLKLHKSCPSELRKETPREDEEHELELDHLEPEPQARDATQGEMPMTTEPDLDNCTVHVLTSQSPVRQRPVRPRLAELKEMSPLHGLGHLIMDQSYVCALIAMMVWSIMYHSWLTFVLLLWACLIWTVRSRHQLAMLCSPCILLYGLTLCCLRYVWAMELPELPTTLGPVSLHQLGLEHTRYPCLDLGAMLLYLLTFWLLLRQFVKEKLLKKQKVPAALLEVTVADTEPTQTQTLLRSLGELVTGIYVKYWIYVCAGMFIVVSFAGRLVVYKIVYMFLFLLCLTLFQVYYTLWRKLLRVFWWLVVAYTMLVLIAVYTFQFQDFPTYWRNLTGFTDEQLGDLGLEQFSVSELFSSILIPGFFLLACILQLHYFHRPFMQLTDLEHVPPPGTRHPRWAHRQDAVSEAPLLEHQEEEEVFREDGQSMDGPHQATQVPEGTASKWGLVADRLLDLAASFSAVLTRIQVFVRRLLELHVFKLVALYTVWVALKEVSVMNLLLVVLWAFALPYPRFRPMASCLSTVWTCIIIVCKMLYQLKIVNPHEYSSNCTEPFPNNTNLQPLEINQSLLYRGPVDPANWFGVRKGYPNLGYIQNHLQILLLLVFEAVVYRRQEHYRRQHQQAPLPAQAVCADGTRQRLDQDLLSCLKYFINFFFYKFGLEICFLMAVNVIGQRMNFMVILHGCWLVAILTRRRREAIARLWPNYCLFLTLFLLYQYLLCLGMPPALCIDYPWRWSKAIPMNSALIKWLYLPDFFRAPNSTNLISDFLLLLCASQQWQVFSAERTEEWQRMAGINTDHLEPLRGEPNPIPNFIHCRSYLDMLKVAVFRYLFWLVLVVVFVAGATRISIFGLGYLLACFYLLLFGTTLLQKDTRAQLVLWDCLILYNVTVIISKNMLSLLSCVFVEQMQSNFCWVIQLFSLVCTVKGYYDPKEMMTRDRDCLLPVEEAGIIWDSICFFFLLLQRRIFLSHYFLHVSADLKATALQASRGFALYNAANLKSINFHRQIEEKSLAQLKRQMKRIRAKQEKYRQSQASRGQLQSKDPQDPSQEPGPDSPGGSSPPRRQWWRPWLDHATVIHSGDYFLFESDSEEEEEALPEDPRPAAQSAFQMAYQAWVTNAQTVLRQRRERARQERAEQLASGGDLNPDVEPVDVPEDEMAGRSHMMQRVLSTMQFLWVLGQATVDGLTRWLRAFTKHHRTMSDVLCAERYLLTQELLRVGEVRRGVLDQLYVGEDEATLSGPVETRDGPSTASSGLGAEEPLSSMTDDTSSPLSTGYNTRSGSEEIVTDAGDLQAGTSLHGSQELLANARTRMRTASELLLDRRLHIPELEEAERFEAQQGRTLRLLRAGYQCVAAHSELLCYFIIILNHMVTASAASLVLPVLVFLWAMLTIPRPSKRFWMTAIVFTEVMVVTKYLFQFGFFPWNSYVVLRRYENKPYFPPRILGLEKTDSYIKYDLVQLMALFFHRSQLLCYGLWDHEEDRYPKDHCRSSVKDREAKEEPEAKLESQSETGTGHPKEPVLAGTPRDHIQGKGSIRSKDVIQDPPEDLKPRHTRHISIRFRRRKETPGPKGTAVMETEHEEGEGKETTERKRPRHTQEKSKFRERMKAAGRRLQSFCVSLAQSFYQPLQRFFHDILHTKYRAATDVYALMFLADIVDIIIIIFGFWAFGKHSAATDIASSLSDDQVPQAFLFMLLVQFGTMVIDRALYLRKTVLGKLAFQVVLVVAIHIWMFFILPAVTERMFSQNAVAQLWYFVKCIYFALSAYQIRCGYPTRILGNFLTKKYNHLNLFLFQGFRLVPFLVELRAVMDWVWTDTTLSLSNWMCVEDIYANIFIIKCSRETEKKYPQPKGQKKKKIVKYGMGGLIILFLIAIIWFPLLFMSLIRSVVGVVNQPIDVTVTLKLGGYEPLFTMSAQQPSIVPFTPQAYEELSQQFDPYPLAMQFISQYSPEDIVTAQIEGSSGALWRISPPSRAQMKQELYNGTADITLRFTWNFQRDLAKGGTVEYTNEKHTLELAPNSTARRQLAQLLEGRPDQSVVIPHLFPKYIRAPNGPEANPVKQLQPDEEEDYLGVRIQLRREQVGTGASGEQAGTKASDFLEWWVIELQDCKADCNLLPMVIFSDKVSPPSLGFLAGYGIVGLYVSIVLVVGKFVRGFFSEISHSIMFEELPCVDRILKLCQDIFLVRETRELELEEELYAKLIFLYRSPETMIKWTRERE

T1 sequence (Q9EPK8 whole entry): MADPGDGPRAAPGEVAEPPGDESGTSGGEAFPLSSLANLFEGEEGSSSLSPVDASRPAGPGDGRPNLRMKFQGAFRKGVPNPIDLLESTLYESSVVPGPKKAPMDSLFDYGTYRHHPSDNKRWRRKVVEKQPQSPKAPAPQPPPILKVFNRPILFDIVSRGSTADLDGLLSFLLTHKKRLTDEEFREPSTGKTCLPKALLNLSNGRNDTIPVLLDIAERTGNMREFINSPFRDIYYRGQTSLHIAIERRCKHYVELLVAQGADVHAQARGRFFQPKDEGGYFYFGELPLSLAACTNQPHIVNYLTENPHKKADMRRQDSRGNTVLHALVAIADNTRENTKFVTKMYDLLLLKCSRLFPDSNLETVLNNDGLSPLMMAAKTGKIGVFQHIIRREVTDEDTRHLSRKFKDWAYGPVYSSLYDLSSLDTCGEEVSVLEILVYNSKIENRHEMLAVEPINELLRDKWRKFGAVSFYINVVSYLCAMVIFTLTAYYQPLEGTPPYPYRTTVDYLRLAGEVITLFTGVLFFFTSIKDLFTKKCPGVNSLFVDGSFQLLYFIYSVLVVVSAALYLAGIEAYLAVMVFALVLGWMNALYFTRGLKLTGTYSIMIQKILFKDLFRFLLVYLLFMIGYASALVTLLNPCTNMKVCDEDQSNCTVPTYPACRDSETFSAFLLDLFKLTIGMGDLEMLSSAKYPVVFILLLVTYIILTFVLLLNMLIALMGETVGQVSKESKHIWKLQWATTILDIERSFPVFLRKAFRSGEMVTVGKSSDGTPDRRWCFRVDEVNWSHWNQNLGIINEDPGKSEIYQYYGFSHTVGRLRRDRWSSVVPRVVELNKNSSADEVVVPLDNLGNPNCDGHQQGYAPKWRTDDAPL

EC50 (TRPV4 (MC3T3-E1 cells)) | EC50 [1] | SMILES
2.25 ± 0.45 nM |  | CC(C)C[C@H](NC(=O)c1cc2ccccc2s1)C(=O)N1CCN(C(=O)[C@H](CO)NS(=O)(=O)c2ccc(Cl)cc2Cl)CC1 [GSK1016790A]
 | 380 ± 70 nM | Clc1cccc(Cl)c1CSc1nnc(-c2cnccn2)s1 [Yoda1, 2-[5-[[(2,6-Dichlorophenyl)methyl]thio]-1,3,4-thiadiazol-2-yl]-pyrazine]
